Consider twelve compounds from patent publication US8809532B2, “Aza-ring fused indole and indoline derivatives” (AbbVie Inc., priority 2009, dated 2014).

SMILES strings stand for the structures.

Data set [1] has as its system SK-N-SH human neuroblastoma cells. Briefly: Serum Deprivation/JC-1 Mitochondrial Membrane Potential (MMP) Assay. In kind it is cell-based. To be noted: for Emax: 18 h, percent maximal JC-1 ratio normalized to the peak value for 10 μM dimebolin, read-out: JC-1 max %; for EC50: JC-1 ratio after ~18 hours serum deprivation, single curve fit to mean data of n=2-3. The method, then: SK—N—SH human neuroblastoma cells obtained from American Type Culture Collection (Rockville, Md.) were maintained in the log phase of growth in Minimal Essential Media (MEM), 10% heat inactivated fetal calf serum and 100 units/mL antibiotic-antimycotic (AA). Cells were cultured and maintained in a humidified incubator at 37° C. under 5% CO2 and 95% air. Cells were trypsinized (0.25%) and subcultured every 3 days and used from 15-18 passages. All cell culture supplies were obtained from Invitrogen (Carlsbad, Calif.).
SK—N—SH cells were plated 2-3 days in advance at a concentration of 50,000 cells/well onto collagen coated black-walled 96 well plates (Becton-Dickinson, Bedford, Mass.) in a total volume of 200 μL. On day of experimental treatment, the media containing serum was aspirated from each well and rinsed once with MEM/1% AA without serum. The cells then were incubated overnight in 100 μL of MEM/1% AA (no serum) with and without dimebolin or novel chemical entities overnight for ˜18 hours. The following day, JC-1 dye (5,5′,6,6′-tetrachloro-1,1′,3,3′-tetraethylbenzimidazolcarbocyanide) was diluted 1:10 into MEM media according to the JC-1 Mitochondrial Membrane Potential Assay Kit: (Cayman Chemical Company, Ann Arbor, Mich.) and then 10 μL of the JC-1 dye solution was added to each well. The plates were centrifuged for 5 minutes at 400×g at room temperature followed by 40 minute incubation at 37° C. The plates were washed twice with 200 μL of provided Assay Buffer followed an addition of 100 μL of Assay Buffer to each well. The plates were read with an excitation and emission of 560 nm and 595 nM for red fluorescence and with an excitation and emission of […] and 535 nM for green fluorescence to determine the final JC-1 value taking the red to green fluorescence ratio. This assay is based on change in mitochondrial membrane potential (MMP) using this lipophilic cationic dye, JC-1, by monitoring the changes in the ratio of red to green fluorescence as the MMP depolarizes. This change in MMP reflects the health of the cell with healthy, viable cells have a high JC-1 ratio and high MMP whereas apoptotic, unhealthy cells have a low JC-1 ratio or low MMP.
For the ability of compounds to reverse the stress due to serum deprivation and increase the JC-1 ratio, the percent maximal intensity in JC-1 ratio was normalized to that induced by the peak value for 10 μM dimebolin and plotted against the compound concentration to calculate EC50 values and to control for plate-to-plate variability. Concentration-response data were analyzed using GraphPad Prism (San Diego, Calif.); the EC50 values were derived from a single curve fit to the mean data of n=2-3, in duplicates.
All compounds were dissolved in dimethyl sulfoxide at 10 mM stock solutions and tested at a concentration that the dimethyl sulfoxide levels never exceeded 1%.

Data set [2] has as its system primary postnatal (P0) cortical cells. Briefly: Neurite Outgrowth Assay (Aβ1-42 neuroprotection, high content microscopy). In kind it is cell-based, rat. To be noted: n = 3; for % Attenuation Effect of 5 μM Aβ 1-42: 5 μM Aβ1-42; for Emax: Rattus norvegicus, maximum response relative to 300 nM dimebolin, at the noted concentration, read-out: Maximum Effect (of % 300 nM Dimebolin) at Concentration; for Concentration (nM) at which the Maximum Effect was seen: test compound concentration of the maximum response. The method, then:
In addition to PC12 cells, other cellular model systems may also be used. Rat cortical cells can be cultured and prepared for high content microscopy analysis as previously described (Hu, M.; Schurdak, M. E.; et al. High content screen microscopy analysis of Aβ1-42-induced neurite outgrowth reduction in rat primary cortical neurons: Neuroprotective effects of α7 neuronal nicotinic acetylcholine receptor ligands. Brain Res. 2007, 1151, 227-235.). Briefly, cortical cell cultures are plated at density of 5×10^5 cells/mL onto poly-D-lysine coated 96-well plates and maintained in a cell incubator at 37° C. with 5% CO2. Experiments are performed using 6-7 day-old cortical cell cultures by treating with test compounds. In some experiments, the effect of test compounds on reversing Aβ toxicity can also be measured (Hu, M.; Schurdak, M. E.; et al. High content screen microscopy analysis of Aβ1-42-induced neurite outgrowth reduction in rat primary cortical neurons: Neuroprotective effects of α7 neuronal nicotinic acetylcholine receptor ligands. Brain Res. 2007, 1151, 227-235.). For assessment of neuroprotective effects, cells are first pretreated with test compounds for about 5 hours. Medium is then replaced with the medium containing freshly prepared about 5 μM Aβ1-42 peptide in the absence or presence of the test compounds for 3 days. The untreated group contains the same percentage of vehicle (DMSO) as in the treatment groups. Cells are fixed with approximately 4% paraformaldehyde containing 0.5% Hoechst 33342 for about 15 minutes, followed by three washes using PBS (pH 7.4) and blocked with 10% donkey serum in PBS for 1 hour at room temperature. The cells are then incubated overnight at about 4° C. with mouse anti-tubulin monoclonal antibody (1:100) for staining neurons and rabbit anti-GFAP (1:1000) for staining glia. In the next day, cells are incubated with FITC-labeled anti-mouse and TRITC-labeled anti-rabbit antibodies (1:1000) for about 1 hour at room temperature. After fixing and staining the cells, nuclei (360/400 nm excitation and 465/300 nm emission filters), neuron (475/350 nm excitation and 535/400 nm emission filters) and glial cell (535 nm excitation and 610 nm emission filters) images are collected using the ImageExpress Micro automatic fluorescent microscopy system (Molecular Devices, Sunnyvale, Calif.) employing a Nikon 10x Plan Fluor objective and Cool Snap HQ CCD camera. The Neurite Outgrowth module in the MetaMorph Imaging software can be used to automatically count total cell number, number of neuron cells, and the extent of neurite outgrowth.
The neurite outgrowth observed for untreated cells is set to 100% response. Treatment of cells with compounds prior to and concomitantly with Aβ1-42 gave a neuroprotective effect with neurite outgrowth maintained or enhanced relative to untreated cells.

For data set [3], the system named is patients with mild-to-moderate Alzheimer's disease. To be noted: cited from earlier work.
The test system of data set [4] is primary rat cortical neurons. As to conditions: comparable to that evoked by BDNF; cited from earlier work.

As usually defined, the EC50 is the midpoint of the concentration-response curve. Take `CCNC(=O)N1CCc2[nH]c3c(/C=C/c4ccc(C)nc4)cccc3c2C1` [Example 11, N-ethyl-6-[(E)-2-(6-methylpyridin-3-yl)vinyl]-1,3,4,5-tetrahydro-2H-pyrido[4,3-b]indole-2-carboxamide]: in data set [1], the Emax was found to be 186% and the EC50 was 5.1 µM.
For the compound `Cc1ccc(/C=C/c2cccc3c2N[C@@H]2CCN(C)C[C@H]32)cn1` (relative stereo) [Example 9, (cis)-2-methyl-6-[(E)-2-(6-methylpyridin-3-yl)vinyl]-2,3,4,4a,5,9b-hexahydro-1H-pyrido[4,3-b]indole], in data set [1], the Emax came to 161% and the EC50 worked out at 7.53 µM.
On to `Cc1ccc(C#Cc2cccc3c4c([nH]c23)CCN(C)C4)cn1` [Example 2, 2-methyl-6-[(6-methylpyridin-3-yl)ethynyl]-2,3,4,5-tetrahydro-1H-pyrido[4,3-b]indole], for which, in data set [1], the Emax turned out to be 176% and the half-maximal effective concentration (EC50) worked out at 10.8 µM. For the same compound, in data set [2], the “% Attenuation Effect of 5 μM Aβ 1-42” value is 57 (n = 3) %, the Emax is 129% and the “Concentration (nM) at which the Maximum Effect was seen” value was 300 nM.
As to `CC(=O)N1CCc2[nH]c3c(/C=C/c4ccc(C)nc4)cccc3c2C1` [Example 8, 2-acetyl-6-[(E)-2-(6-methylpyridin-3-yl)vinyl]-2,3,4,5-tetrahydro-1H-pyrido[4,3-b]indole], in data set [1], the Emax came out at 155% and the EC50 turned out to be 2.98 µM.
Regarding `Cc1ccc(/C=C/c2cccc3c4c([nH]c23)CCN(C)C4)cn1` [Example 1, 2-methyl-6-[(E)-2-(6-methylpyridin-3-yl)vinyl]-2,3,4,5-tetrahydro-1H-pyrido[4,3-b]indole], in data set [1], the Emax is 126% and the EC50 was found to be 4.37 µM. In data set [2], the “% Attenuation Effect of 5 μM Aβ 1-42” value is listed as 39 (n = 3) %, the Emax is 111% and the “Concentration (nM) at which the Maximum Effect was seen” value worked out at 30 nM.
As for `Cc1ccc2c(c1)c1c(n2CCc2ccc(C)nc2)CCN(C)C1` [dimebolin, 2,3,4,5-tetrahydro-2,8-dimethyl-5-[2-(6-methyl-3-pyridinyl)ethyl]-1H-pyrido[4,3-b]indole], the “clinical course of disease, ADAS-Cog over baseline” value in data set [3] (20 mg three times a day (60 mg/day)) is on record as “significant improvement”. In data set [3] (reported clinical studies), the “most frequent adverse event” value was “dry mouth”. In addition, the neurite outgrowth result in data set [4] is listed as “increase neurite outgrowth”.
For the compound `CCOC(=O)N1CCc2[nH]c3c(/C=C/c4ccc(C)nc4)cccc3c2C1` [Example 10, ethyl 6-[(E)-2-(6-methylpyridin-3-yl)vinyl]-1,3,4,5-tetrahydro-2H-pyrido[4,3-b]indole-2-carboxylate], in data set [1], the Emax was 146% and the half-maximal effective concentration (EC50) worked out at 3.24 µM.
`Cc1ccc(CCc2cccc3c4c([nH]c23)CCN(C)C4)cn1` [Example 3, 2-methyl-6-[2-(6-methylpyridin-3-yl)ethyl]-2,3,4,5-tetrahydro-1H-pyrido[4,3-b]indole]: in data set [1], the Emax came to 115% and the 50% effective concentration (EC50) was 7.64 µM.
Take `Cc1ccc(CCc2cccc3c4c([nH]c23)CCNC4)cn1` [Example 7, 6-[2-(6-methylpyridin-3-yl)ethyl]-2,3,4,5-tetrahydro-1H-pyrido[4,3-b]indole]: in data set [1], the Emax is 88% and the EC50 was 4.72 µM.
For `CN1CCc2[nH]c3c(C#Cc4cccnc4)cccc3c2C1` [Example 4, 2-methyl-6-(pyridin-3-ylethynyl)-2,3,4,5-tetrahydro-1H-pyrido[4,3-b]indole], in data set [1], the Emax is 199% and the EC50 is 8.93 µM.
Turning to `Cc1ccc(/C=C/c2cccc3c4c([nH]c23)CCNC4)cn1` [Example 6, 6-[(E)-2-(6-methylpyridin-3-yl)vinyl]-2,3,4,5-tetrahydro-1H-pyrido[4,3-b]indole], in data set [1], the Emax amounted to 132% and the EC50 is 4.13 µM.
Taken in the same sequence, the figures for `CN1CCc2[nH]c3c(C#Cc4ccncc4)cccc3c2C1` [Example 5, 2-methyl-6-(pyridin-4-ylethynyl)-2,3,4,5-tetrahydro-1H-pyrido[4,3-b]indole] were 103% and 4.32 µM.
